Experimental data published in PubChem BioAssay (NCI).
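Growth conditions: 96-well plates. Treatment: test compound, 48 hours, 5 concentrations. Analysis: linear interpolation between bracketing concentrations; unreached endpoints set to highest concentration. GI50 marks 50% less growth. At the TGI there is no net growth.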

Legend:
Assay in all cases: NCI tumour cell line growth inhibition, 48 h
[1] = system: RPMI-8226 leukemia
[2] = system: UACC-62 melanoma
[3] = system: SF-295 CNS
[4] = system: NCI-H23 lung
[5] = system: UO-31 renal
[6] = system: NCI/ADR-RES ovarian
[7] = system: HOP-92 NSCLC
[8] = system: T-47D breast
[9] = system: SF-539 CNS
[10] = system: SK-MEL-28 melanoma
[11] = system: MALME-3M melanoma
[12] = system: SW-620 colon
[13] = system: HOP-62 NSCLC
[14] = system: A498 renal
[15] = system: NCI-H522 lung
[16] = system: SF-268 CNS
[17] = system: COLO 205 colon
[18] = system: OVCAR-5 ovarian
[19] = system: EKVX NSCLC
[20] = system: 786-0 renal
[21] = system: DU-145 prostate
[22] = system: SNB-19 CNS
[23] = system: RXF 393 renal
[24] = system: OVCAR-8 ovarian
[25] = system: SR leukemia
[26] = system: A549 NSCLC
[27] = system: PC-3 prostate
[28] = system: SK-MEL-5 melanoma
[29] = system: LOX IMVI melanoma
[30] = system: HCT-116 colon
[31] = system: SNB-75 CNS
[32] = system: MOLT-4 leukemia
[33] = system: HL-60(TB) leukemia
[34] = system: K-562 leukemia
[35] = system: CAKI-1 renal
[36] = system: OVCAR-4 ovarian
[37] = system: SK-MEL-2 melanoma
[38] = system: HS 578T breast
[39] = system: KM12 colon
[40] = system: HT29 colon
[41] = system: OVCAR-3 ovarian
[42] = system: MDA-MB-435
[43] = system: NCI-H460 lung
[44] = system: TK-10 renal
[45] = system: U251 CNS
[46] = system: IGROV1 ovarian
[47] = system: HCC-2998 colon
[48] = system: MCF7 breast
[49] = system: BT-549 breast
[50] = system: NCI-H226 lung
[51] = system: SN12C renal
[52] = system: ACHN renal
[53] = system: M14 melanoma
[54] = system: SK-OV-3 ovarian
[55] = system: MDA-MB-231 breast
[56] = system: UACC-257 melanoma
[57] = system: HCT-15 colon
[58] = system: CCRF-CEM leukemia

## O=C1[C@H]2Cc3c([nH]c4ccccc34)[C@@H](c3ccc(Br)cc3)N2C(=O)CN1C1CCN(Cc2ccccc2)CC1
[1]
  GI50: 1.74 µM
  TGI: 7.67 µM
[2]
  GI50: 3.58 µM
  TGI: 9.3 µM
[3]
  GI50: 4.56 µM
  TGI: 9.1 µM
[4]
  GI50: 3.98 µM
  TGI: 9.4 µM
[5]
  GI50: 1.13 µM
  TGI: 18.2 µM
[6]
  GI50: 3.58 µM
  TGI: 9.46 µM
[7]
  GI50: 2.65 µM
  TGI: 6.57 µM
[8]
  GI50: 3.54 µM
  TGI: 15.7 µM
[9]
  GI50: 3.61 µM
  TGI: 7.03 µM
[10]
  GI50: 4.41 µM
  TGI: 8.53 µM
[11]
  GI50: 3.69 µM
  TGI: 7.81 µM
[12]
  GI50: 3.32 µM
  TGI: 7.15 µM
[13]
  GI50: 3.98 µM
  TGI: 10.8 µM
[14]
  GI50: 4.28 µM
  TGI: 8.04 µM
[15]
  GI50: 4.6 µM
  TGI: 10.3 µM
[16]
  GI50: 3.49 µM
  TGI: > 25 µM
[17]
  GI50: 2.62 µM
  TGI: 6.04 µM
[18]
  GI50: 5.1 µM
  TGI: 12.7 µM
[19]
  GI50: 3.35 µM
  TGI: 14.7 µM
[20]
  GI50: 3.46 µM
  TGI: 7 µM
[21]
  GI50: 7.12 µM
  TGI: > 25 µM
[22]
  GI50: 6.77 µM
  TGI: > 25 µM
[23]
  GI50: 2.91 µM
  TGI: 6.41 µM
[24]
  GI50: 3.99 µM
  TGI: 9.01 µM
[25]
  GI50: 1.86 µM
  TGI: 8.79 µM
[26]
  GI50: 3.7 µM
  TGI: 13.5 µM
[27]
  GI50: 1.67 µM
  TGI: 7.3 µM
[28]
  GI50: 3.84 µM
  TGI: 7.29 µM
[29]
  GI50: 2.73 µM
  TGI: 6.92 µM
[30]
  GI50: 2.54 µM
  TGI: 5.72 µM
[31]
  GI50: 0.745 µM
  TGI: 18.3 µM
[32]
  GI50: 1.5 µM
  TGI: > 25 µM
[33]
  GI50: 2.3 µM
  TGI: 8.31 µM
[34]
  GI50: 1.06 µM
  TGI: 9.94 µM
[35]
  GI50: 2.44 µM
  TGI: 7.58 µM
[36]
  GI50: 4.24 µM
  TGI: 13.1 µM
[37]
  GI50: 5.73 µM
  TGI: 14.9 µM
[38]
  GI50: 3.4 µM
  TGI: 9.29 µM
[39]
  GI50: 5.49 µM
  TGI: 18.1 µM
[40]
  GI50: 3 µM
  TGI: 7.74 µM
[41]
  GI50: 3.27 µM
  TGI: 7.23 µM
[42]
  GI50: 3.5 µM
  TGI: 7.02 µM
[43]
  GI50: 3.87 µM
  TGI: 7.82 µM
[44]
  GI50: 5.79 µM
  TGI: 12.7 µM
[45]
  GI50: 2.96 µM
  TGI: 6.53 µM
[46]
  GI50: 1.49 µM
  TGI: 5.8 µM
[47]
  GI50: 3.44 µM
  TGI: 7.94 µM
[48]
  GI50: 1.14 µM
  TGI: 4.75 µM
[49]
  GI50: 3.4 µM
  TGI: 7.49 µM
[50]
  GI50: 5.04 µM
  TGI: > 25 µM
[51]
  GI50: 3.17 µM
  TGI: 6.72 µM
[52]
  GI50: 3.76 µM
  TGI: 9.65 µM
[53]
  GI50: 3.24 µM
  TGI: 8.35 µM
[54]
  GI50: 6 µM
  TGI: > 25 µM
[55]
  GI50: 3.44 µM
  TGI: 7.56 µM
[56]
  GI50: 4.64 µM
  TGI: 10.2 µM
[57]
  GI50: 2.62 µM
  TGI: 5.92 µM
[58]
  GI50: 3.3 µM
  TGI: > 25 µM
